Data as given in US9976141B2, “Compositions and methods for inhibiting gene expression of Hif2alpha” (Arrowhead Madison Inc., priority 2015, dated 2018).
Strand notation (5' to 3'): a small letter for the sugar, then the base; units joined by * are phosphorothioate-linked, units joined directly phosphodiester-linked; [ ] holds rarer units or linkages, { } end groups; capitals alone tell only the bases. d = 2'-deoxy (DNA); m = 2'-O-methyl; f = 2'-fluoro

Test system: human EPAS1 (Hif2α) cDNA in psiCHECK2 (Renilla luciferase/EPAS1 fusion mRNA) in Hep3B cells
Experiment: Efficacy screen of Hif2α RNAi triggers in vitro, dual-luciferase reporter assay (1 nM and 0.1 nM)
Type: cell-based
Settings: Hep3B cells co-transfected with EPAS1-psiCHECK2, Renilla luciferase normalized to firefly luciferase
Text: Candidate sequences were identified by in silico analysis and screened as chemically modified canonical siRNAs in vitro. For screening purposes, the human EPAS1 (Hif2α) cDNA sequence (accession #NM 001430) was synthesized and cloned (DNA 2.0, Menlo Park, Calif.) into a commercially-available reporter-based screening plasmid, psiCHECK2 (Promega, Madison, Wis.) which generated a Renilla luciferase/EPAS1 fusion mRNA. For RNAi trigger efficacy evaluation, Hep3B cells, a human hepatocellular carcinoma line, were plated at 10,000 cells per well in 96-well format. Each of the 187 EPAS1 RNAi triggers, in two subsets, was co-transfected at two concentrations, 1 nM and 0.1 nM, with 25 ng EPAS1-psiCHECK2 plasmid DNA per well and 0.2 μL LipoFectamine 2000 (Life Technologies) per well. Gene knockdown was determined by measuring Renilla luciferase levels normalized to the levels of constitutively-expressed firefly luciferase, also present on the psiCHECK-2 plasmid, using the Dual Luciferase Reporter Assay (Promega, Madison, Wis.) Table 5.

Substance	Relative Rluc-Hif2α (0.1 nM RNAi trigger)	Relative Rluc-Hif2α (1 nM RNAi trigger)
2327 (sense fCmCfUmGfUmCfGmUfCmAfGmCfCmCfAmCfAmAfAdT; antisense dTfUmUfGmUfGmGfGmCfUmGfAmCfGmAfCmAfGmGdT*dT; siRNA) [compound 2327]	1.339 ± 0.179	1.073 ± 0.089
2356 (sense fAmUfAmGfGmUfGmUfGmAfCmAfAmUfCmCfGmAfAdT; antisense dTfUmCfGmGfAmUfUmGfUmCfAmCfAmCfCmUfAmUdT*dT; siRNA) [compound 2356]	0.574 ± 0.006	0.210 ± 0.023
2323 (sense fAmCfAmAfGmCfCmAfCmUfGmAfGmCfGmCfAmAfAdT; antisense dTfUmUfGmCfGmCfUmCfAmGfUmGfGmCfUmUfGmUdT*dT; siRNA) [compound 2323]	0.631 ± 0.085	0.664 ± 0.166
2238 (sense fUmCfGmGfCmGfUmCfUmGfAmAfCmGfUmCfUmCfAdT; antisense dTfGmAfGmAfCmGfUmUfCmAfGmAfCmGfCmCfGmAdT*dT; siRNA) [compound 2238]	0.208 ± 0.023	0.148 ± 0.024
2359 (sense fCmCfGmAfGmCfAmGfUmGfGmAfGmUfCmAfUmUfAdT; antisense dTfAmAfUmGfAmCfUmCfCmAfCmUfGmCfUmCfGmGdT*dT; siRNA) [compound 2359]	0.576 ± 0.208	0.354 ± 0.022
2317 (sense fCmUfCmGfAmGfGmCfCmCfAmGfAmCfGmUfGmCfAdT; antisense dTfGmCfAmCfGmUfCmUfGmGfGmCfCmUfCmGfAmGdT*dT; siRNA) [compound 2317]	0.842 ± 0.239	0.843 ± 0.157
2370 (sense fCmGfGmGfGmAfAmGfUmGfCmUfCmUfAmAfCmUfAdT; antisense dTfAmGfUmUfAmGfAmGfCmAfCmUfUmCfCmCfCmGdT*dT; siRNA) [compound 2370]	0.498 ± 0.128	0.294 ± 0.026
2287 (sense fCmUfAmCfAmAfCmCfCmUfCmGfCmAfAmCfCmUfAdT; antisense dTfAmGfGmUfUmGfCmGfAmGfGmGfUmUfGmUfAmGdT*dT; siRNA) [compound 2287]	0.871 ± 0.102	0.751 ± 0.011
2252 (sense fGmAfGmAfUmUfCmGfUmGfAmGfAmAfCmCfUmGfAdT; antisense dTfCmAfGmGfUmUfCmUfCmAfCmGfAmAfUmCfUmCdT*dT; siRNA) [compound 2252]	0.696 ± 0.096	0.592 ± 0.061
2250 (sense fUmCfUmUfUmGfAmCfUmUfCmAfCmUfCmAfUmCfAdT; antisense dTfGmAfUmGfAmGfUmGfAmAfGmUfCmAfAmAfGmAdT*dT; siRNA) [compound 2250]	0.255 ± 0.020	0.139 ± 0.046
2302 (sense fCmUfUmUfGmAfUmGfCmCfGmGfAmAfGmCfAmAfAdT; antisense dTfUmUfGmCfUmUfCmCfGmGfCmAfUmCfAmAfAmGdT*dT; siRNA) [compound 2302]	0.414 ± 0.019	0.147 ± 0.028
2251 (sense fUmCfAmCfUmCfAmUfCmCfCmUfGmCfGmAfCmCfAdT; antisense dTfGmGfUmCfGmCfAmGfGmGfAmUfGmAfGmUfGmAdT*dT; siRNA) [compound 2251]	0.857 ± 0.087	0.872 ± 0.121
2387 (sense fAmUfAmCfCmAfAmUfUmAfCmAfUmGfGmAfAmCfAdT; antisense dTfGmUfUmCfCmAfUmGfUmAfAmUfUmGfGmUfAmUdT*dT; siRNA) [compound 2387]	0.436 ± 0.028	0.201 ± 0.063
2286 (sense fAmUfCmUfAmCfAmAfCmCfCmUfCmGfCmAfAmCfAdT; antisense dTfGmUfUmGfCmGfAmGfGmGfUmUfGmUfAmGfAmUdT*dT; siRNA) [compound 2286]	1.291 ± 0.367	0.878 ± 0.078
2362 (sense fAmGfCmAfCmUfGmCfGmCfGmCfUmAfUmCfCmCfAdT; antisense dTfGmGfGmAfUmAfGmCfGmCfGmCfAmGfUmGfCmUdT*dT; siRNA) [compound 2362]	0.673 ± 0.089	0.454 ± 0.069
2355 (sense fCmAfUmAfGmGfUmGfUmGfAmCfAmAfUmCfCmGfAdT; antisense dTfCmGfGmAfUmUfGmUfCmAfCmAfCmCfUmAfUmGdT*dT; siRNA) [compound 2355]	0.457 ± 0.066	0.248 ± 0.063
2334 (sense fUmUfUmUfUmCfUmGfAmGfAmUfGmCfUmCfAmCfAdT; antisense dTfGmUfGmAfGmCfAmUfCmUfCmAfGmAfAmAfAmAdT*dT; siRNA) [compound 2334]	0.672 ± 0.082	0.389 ± 0.044

Substance	Relative Rluc-Hif2α (0.1 nM RNAi trigger)	Relative Rluc-Hif2α (1 nM RNAi trigger)
2309 (sense fUmUfUmUfGmGfGmCfCmCfAmCfAmAfAmGfUmGfAdT; antisense dTfCmAfCmUfUmUfGmUfGmGfGmCfCmCfAmAfAmAdT*dT; siRNA) [compound 2309]	0.823 ± 0.096	1.081 ± 0.135
2276 (sense fGmUfAmAfGmUfGmGfCmCfAmGfUmAfCmCfGmGfAdT; antisense dTfCmCfGmGfUmAfCmUfGmGfCmCfAmCfUmUfAmCdT*dT; siRNA) [compound 2276]	0.543 ± 0.029	0.330 ± 0.080
2386 (sense fUmUfCmAfAmUfAmCfCmAfAmUfUmAfCmAfUmGfAdT; antisense dTfCmAfUmGfUmAfAmUfUmGfGmUfAmUfUmGfAmAdT*dT; siRNA) [compound 2386]	0.603 ± 0.032	0.274 ± 0.087
2399 (sense fCmCfUmAfCmCfUmGfUmCfAmAfCmGfUmAfAmCfAdT; antisense dTfGmUfUmAfCmGfUmUfGmAfCmAfGmGfUmAfGmGdT*dT; siRNA) [compound 2399]	0.784 ± 0.071	0.418 ± 0.081
2401 (sense fUmAfCmCfUmGfUmCfAmAfCmGfUmAfAmCfGmAfAdT; antisense dTfUmCfGmUfUmAfCmGfUmUfGmAfCmAfGmGfUmAdT*dT; siRNA) [compound 2401]	0.375 ± 0.062	0.174 ± 0.003
2340 (sense fGmUfCmAfAmCfUmCfCmAfAmCfGmUfAmUfGmUfAdT; antisense dTfAmCfAmUfAmCfGmUfUmGfGmAfGmUfUmGfAmCdT*dT; siRNA) [compound 2340]	0.920 ± 0.114	0.444 ± 0.039
2246 (sense fGmAfGmCfUmAfAmCfAmGfGmAfCmAfUmAfGmUfAdT; antisense dTfAmCfUmAfUmGfUmCfCmUfGmUfUmAfGmCfUmCdT*dT; siRNA) [compound 2246]	0.509 ± 0.044	0.327 ± 0.042
2338 (sense fAmGfGmGfUmCfAmAfCmUfCmCfAmAfCmGfUmAfAdT; antisense dTfUmAfCmGfUmUfGmGfAmGfUmUfGmAfCmCfCmUdT*dT; siRNA) [compound 2338]	0.743 ± 0.070	0.334 ± 0.091
2235 (sense fGmAfCmUfCmCfCmAfGmCfAmUfUmCfGmAfGmCfAdT; antisense dTfGmCfUmCfGmAfAmUfGmCfUmGfGmGfAmGfUmCdT*dT; siRNA) [compound 2235]	0.743 ± 0.129	0.857 ± 0.090
2374 (sense fGmCfUmAfUmGfUmGfAmCfUmCfGmGfAmUfGmGfAdT; antisense dTfCmCfAmUfCmCfGmAfGmUfCmAfCmAfUmAfGmCdT*dT; siRNA) [compound 2374]	0.355 ± 0.020	0.192 ± 0.014
2264 (sense fCmAfGmAfAmCfUmGfAmUfUmGfGmUfUmAfCmCfAdT; antisense dTfGmGfUmAfAmCfCmAfAmUfCmAfGmUfUmCfUmGdT*dT; siRNA) [compound 2264]	0.381 ± 0.023	0.183 ± 0.019
2411 (sense fGmAfAmUfUmCfCmUfAmCfUmGfAmCfAmAfCmAfAdT; antisense dTfUmGfUmUfGmUfCmAfGmUfAmGfGmAfAmUfUmCdT*dT; siRNA) [compound 2411]	0.796 ± 0.110	0.410 ± 0.083
2379 (sense fUmAfCmCfAmUfGmAfGmAfUmGfGmUfUmUfAmGfAdT; antisense dTfCmUfAmAfAmCfCmAfUmCfUmCfAmUfGmGfUmAdT*dT; siRNA) [compound 2379]	0.858 ± 0.098	0.939 ± 0.204
2404 (sense fCmUfGmUfCmAfAmCfGmUfAmAfCmGfAmUfUmUfAdT; antisense dTfAmAfAmUfCmGfUmUfAmCfGmUfUmGfAmCfAmGdT*dT; siRNA) [compound 2404]	0.234 ± 0.045	0.104 ± 0.019
2342 (sense fCmAfAmCfUmCfCmAfAmCfGmUfAmUfGmUfGmGfAdT; antisense dTfCmCfAmCfAmUfAmCfGmUfUmGfGmAfGmUfUmGdT*dT; siRNA) [compound 2342]	1.058 ± 0.064	0.549 ± 0.041
2326 (sense fCmUfAmCfAmGfCmCfUmGfUmCfGmUfCmAfGmCfAdT; antisense dTfGmCfUmGfAmCfGmAfCmAfGmGfCmUfGmUfAmGdT*dT; siRNA) [compound 2326]	0.660 ± 0.114	0.546 ± 0.083
